Laboratory results: publication PMC8359193, “Summary of reference chemicals evaluated by the fish short‐term reproduction assay, OECD TG229, using Japanese Medaka, Oryzias latipes” (Journal of Applied Toxicology, 2021)
“Also recorded” adds a separate entry of the source. Where two headings read alike, the source gives them in different places.

Experiments:
medaka Esr1 (mEsr1) = target: T1, medaka Esr1 (mEsr1) (Oryzias latipes, UniProt P50241); experiment: Medaka Esr1 reporter gene assay (RGA), antagonist assay with 1 nM E2, HEK293 cells; format: cell-based, Japanese medaka (Oryzias latipes)
T1 construct: expressed in transfected cells; host or cells: HEK293 (human embryonic kidney cells), transient transfection with FuGENE HD
T1 sequence (P50241 1-620): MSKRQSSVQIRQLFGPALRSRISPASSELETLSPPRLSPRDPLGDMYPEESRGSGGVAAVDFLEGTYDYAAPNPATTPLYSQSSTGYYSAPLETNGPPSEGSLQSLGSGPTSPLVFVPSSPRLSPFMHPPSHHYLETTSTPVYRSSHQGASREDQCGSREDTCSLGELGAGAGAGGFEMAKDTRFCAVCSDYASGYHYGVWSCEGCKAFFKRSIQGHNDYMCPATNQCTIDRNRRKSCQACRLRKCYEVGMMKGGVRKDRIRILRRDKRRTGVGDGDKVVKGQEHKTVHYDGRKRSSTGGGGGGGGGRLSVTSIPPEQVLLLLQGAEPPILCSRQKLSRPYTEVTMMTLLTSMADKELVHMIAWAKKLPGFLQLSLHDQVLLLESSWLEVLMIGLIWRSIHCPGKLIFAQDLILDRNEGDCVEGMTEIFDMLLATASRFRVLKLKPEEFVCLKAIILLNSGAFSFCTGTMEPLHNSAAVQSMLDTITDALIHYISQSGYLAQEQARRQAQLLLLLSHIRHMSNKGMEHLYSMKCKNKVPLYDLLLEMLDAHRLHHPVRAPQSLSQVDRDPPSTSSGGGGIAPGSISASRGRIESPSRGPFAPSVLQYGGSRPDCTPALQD
Procedure: To support interpretation of the biological effects observed in the FSTRA studies, in vitro RGAs using medaka Esr1 (mEsr1) and medaka ARβ (mARβ) were performed for the 16 test chemicals. In the present study, Esr1 and ARβ, which are ancestral subtypes among Esrs and ARs in Japanese medaka, were selected based on the phylogenetical analyses of Esr and AR with each receptor RGAs (Ogino et al., [2016], [2018]; Tohyama et al., [2015]).
The mEsr1 RGA consisting of agonist and antagonist assays were performed according to the methods previously reported (Katsu et al., [2010]; Lange et al., [2012]; Miyagawa et al., [2014]). Briefly, human embryonic kidney cells 293 (HEK293), precultured, were seeded in 96‐well plates at 15,000 cells/well with 200 μl of culture medium, phenol‐red‐free Dulbecco's Modified Eagle's medium (ThermoFisher Scientific K.K., Tokyo, Japan) supplemented with 2‐mM L‐glutamine and 10% charcoal/dextran‐treated fetal bovine serum (Hyclone, UT, USA), and then incubated for 24 h in 5% CO2 at 37°C. After the 24‐h incubation, 20 μl of test medium containing 40 ng of medaka Esr1/pcDNA3.1, 80 ng of ERE‐TK‐Luc, and 20 ng of pRL‐TK‐Rlu and 1.2 μL of transfection reagent FuGENE HD (Promega, WI, USA) were added into each well. The assay plates were incubated for another 4 h in order to transfect the three vectors into the HEK293 cells. After the vectors were successfully transfected, in agonist assay, 24 μl of concentrated test chemical solution was applied to the test medium in the plate wells. […] After chemical treatment for 40 h, luciferase activity of the cells was measured, and the promoter activity was calculated as firefly (Photinus pyralis)‐/sea pansy (Renilla reniformis)‐luciferase activity in each well. The luciferase activities were quantified by a chemiluminescence assay with Dual‐Luciferase Reporter Assay System (Promega) in accordance with the manufacturer's instructions, and luminescence intensity of firefly and sea pansy luciferin was measured using a luminometer, TriStar LB941 (Berthold Technology, Oak Ridge, TN, USA).
(§1) Effect concentrations, that is, EC50 (a half maximal effective concentration) in the agonist assay and IC50 (a half maximal inhibitory concentration) in the antagonist assay, were estimated by nonlinear curve fitting (e.g., three parameters logistic regression curve) using GraphPad Prism (GraphPad Software Inc., La Jolla, CA, USA).

medaka ARβ (mARβ) = medaka ARβ (mARβ) (Oryzias latipes, UniProt D1MV73); experiment: Medaka ARβ reporter gene assay (RGA), agonist assay, HepG2 cells; format: cell-based, Japanese medaka (Oryzias latipes); conditions: mARβ RGA agonist assay; ND = no significant response even at the highest assay concentration (in parentheses)
Sequence of medaka ARβ (mARβ) (D1MV73 entry or part of it): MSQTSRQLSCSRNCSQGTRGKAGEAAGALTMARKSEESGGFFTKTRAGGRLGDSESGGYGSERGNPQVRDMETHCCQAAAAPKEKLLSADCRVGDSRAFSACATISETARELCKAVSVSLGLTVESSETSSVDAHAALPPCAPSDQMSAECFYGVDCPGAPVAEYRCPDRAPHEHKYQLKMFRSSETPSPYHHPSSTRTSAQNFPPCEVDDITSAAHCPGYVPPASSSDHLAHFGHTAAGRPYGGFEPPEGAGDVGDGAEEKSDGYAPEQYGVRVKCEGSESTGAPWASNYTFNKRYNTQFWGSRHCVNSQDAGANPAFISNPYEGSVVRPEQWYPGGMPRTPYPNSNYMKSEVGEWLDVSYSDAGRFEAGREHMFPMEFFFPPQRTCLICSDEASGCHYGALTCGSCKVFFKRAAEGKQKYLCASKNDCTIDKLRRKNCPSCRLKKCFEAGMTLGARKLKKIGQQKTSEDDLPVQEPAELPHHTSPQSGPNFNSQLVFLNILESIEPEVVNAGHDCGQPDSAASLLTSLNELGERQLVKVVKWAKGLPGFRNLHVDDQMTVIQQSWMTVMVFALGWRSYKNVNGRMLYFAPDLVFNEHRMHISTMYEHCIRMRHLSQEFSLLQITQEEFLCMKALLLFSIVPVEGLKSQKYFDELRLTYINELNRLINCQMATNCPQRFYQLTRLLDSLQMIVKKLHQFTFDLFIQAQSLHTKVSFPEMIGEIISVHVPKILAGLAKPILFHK
Procedure: To support interpretation of the biological effects observed in the FSTRA studies, in vitro RGAs using medaka Esr1 (mEsr1) and medaka ARβ (mARβ) were performed for the 16 test chemicals.
For the assays, human liver cancer cell line, HepG2, was used as the host cells, and mARβ/pcDNA3.1, MMTV‐Luc, and pRL‐TK‐Rlu were used as mARβ expression vector, reporter vector, and internal control vector, respectively.
as §1

[1] = test system: Japanese medaka (Oryzias latipes); experiment: Fish short-term reproduction assay (FSTRA, OECD TG229), 21-day flow-through exposure; conditions: for GSI Female / HSI Female / Length Female / Weight Female / GSI Male / HSI Male / Length Male / Weight Male: at completion of exposure; for Fertility rate (%) / Mortality (%) Female / Mortality (%) Male / Number of fertilized eggs / Number of total eggs / SSC Female / SSC Male / VTG (ng/mg of liver) Female / VTG (ng/mg of liver) Male: 21 days
Procedure: The experimental studies on the FSTRA for the 16 chemicals were conducted in two laboratories in Japan, the National Institute for Environmental Studies (NIES, Lab‐1) and the Institute of Environmental Ecology, IDEA Consultants Inc. (Lab‐2), in accordance with OECD TG229 (OECD, [2012a]) (Table 1).
The NIES‐R strain of Japanese medaka (O. latipes), one of the orange‐red varieties, was used in all the 16 chemical studies. For the studies, healthy and mature male and female medakas at 16 ± 2 weeks old were selected from a single‐stock population, which were bred within the test facilities. The test fish were maintained in conditions similar to the assay for at least 7 days, and spawning status was checked during the acclimation period. On the day the chemical exposure commenced, to ensure balanced distribution of test fish between the treatment groups for the reproductive status of the fish, the replicate vessels (fish tanks), with each containing three male and female medaka, were distributed to each treatment and control group, for example, by a randomized block design based on the number of fertilized eggs laid in the last 5–7 days during the acclimation, in each assay.
The water solubility of the test chemical was also taken into consideration when deciding the highest test concentration. To set the lower concentrations, a spacing factor ranging between two and five was used. All assays included a dilution water control (DWC).
Test solutions at the selected concentrations were prepared by diluting a stock solution, which was prepared by an adequate method depending on the physicochemical properties of the test chemicals, for example, by simply mixing the test chemical in dilution water by stirring and/or sonicating for an appropriate time or by using a solid–liquid saturator. In the two laboratories, flow‐through exposure systems, in which a series of test solutions at the target concentrations can be continuously prepared and delivered to test vessels at controlled flow rates (Haselman et al., [2016]; Watanabe et al., [2017]), were used for the exposure experiments.
In the FSTRA, three mature adult males and females in a test vessel were exposed together to the test chemicals in flow‐through condition for 3 weeks. In all the assays, each treatment group, including the DWC group, contained four replicate tanks. During the exposure period, the fish were fed a sufficient amount of live brine shrimp nauplii (newly hatched Artemia sp.) for daily spawning ad libitum. Fecal material in the tanks was appropriately removed by siphoning after feeding. Water temperature of test solutions was recorded for at least one vessel in each treatment and control group every day and for all vessels at least once a week. Furthermore, dissolved oxygen and pH of test solutions were measured for all test vessels at least once a week. Mortality and abnormal behavior and appearance in the fish exposed to test chemicals were daily observed, and any fish that died were removed from the tank as soon as possible. To assess the reproductive status, all eggs females spawned were collected every day. At the completion of the chemical exposure, surviving fish in each tank were sampled.
The eggs females released on the bottom of the tank were collected by siphoning, and the egg clutches still on female abdomen were carefully picked from the body of the females captured using a small net. All the eggs collected were microscopically observed and separately counted for fertilized and unfertilized.

## C[C@]12CC(=O)[C@H]3[C@@H](CCC4=CC(=O)CC[C@@]43C)[C@@H]1CC[C@@H]2O [11KT, 11‐ketotestosterone]
Medaka Esr1 (mEsr1); mEsr1 RGA antagonist assay, 1 nM E2-mediated transactivation, ND = no significant response even at the highest assay concentration (in parentheses), read-out: Antagonist assay, IC50, Medaka Esr1
  IC50: > 100000 nM
Medaka ARβ (mARβ)
  EC50: 2.7 nM

## CC/C(=C(\c1ccc(O)cc1)c1ccc(OCCN(C)C)cc1)c1ccccc1 [4HTAM, 4‐hydroxytamoxifen]
Medaka Esr1 (mEsr1)
  IC50: 0.52 nM

## CCCN(CCOc1c(Cl)cc(Cl)cc1Cl)C(=O)n1ccnc1 [PCL, Prochloraz]
Medaka Esr1 (mEsr1)
  IC50: > 10000 nM
[1]; 21-day exposure
  effect on fertility rate, in words: significant decrease; also recorded: significant reduction
[1]; measured conc. 20.6 μg/L
  GSI Female: 10.2%
  HSI Female: 4.2%
  Length Female: 35.0 mm
  Weight Female: 547 mg
  GSI Male: 1.26%
  HSI Male: 1.7%
  Length Male: 34.4 mm
  Weight Male: 408 mg
  Fertility rate (%): 94%
  Mortality (%) Female: 0%
  Mortality (%) Male: 0%
  Number of fertilized eggs: 37
  Number of total eggs: 39 ± 4.5 /female/day
  SSC Female: 0 ± 0
  SSC Male: 103 ± 15
  VTG (ng/mg of liver) Female: 289 ± 57 ng/mg of liver
  VTG (ng/mg of liver) Male: 2.6 ± 2.0 ng/mg of liver
[1]; measured conc. 44.9 μg/L
  GSI Female: 11.1%
  HSI Female: 4.5%
  Length Female: 36.5 mm
  Weight Female: 591 mg
  GSI Male: 1.16%
  HSI Male: 1.7%
  Length Male: 34.3 mm
  Weight Male: 415 mg
  Fertility rate (%): 84%
  Mortality (%) Female: 0%
  Mortality (%) Male: 0%
  Number of fertilized eggs: 28
  Number of total eggs: 34 ± 5.5 /female/day
  SSC Female: 0 ± 0
  SSC Male: 93 ± 13
  VTG (ng/mg of liver) Female: 173 ± 53 ng/mg of liver
  VTG (ng/mg of liver) Male: 1.2 ± 1.2 ng/mg of liver
[1]; hepatic VTG, 21-day exposure, measured conc.
  LOEC for decrease of VTG in females: 44.9 µg/L
[1]; within the test concentrations, 21-day exposure
  effect on fecundity (number of total eggs), in words: No effect
